This note sets out measurements from US12168010B2, “Use of co-enzyme antagonists to slow metabolism” (priority 2020, dated 2024).

For data set [1] the following is noted: rat, in vivo, po. The source says: This means that there is a very efficient cleavage of B-OT into OT, and a high percentage amount of OT is present in the blood. Thus, B-OT is a pharmacokinetically good and orally applicable substance that allows good and efficient delivery of OT. Since OT usually must/should be administered intraperitoneally, the oral administration of B-OT represents an important advantage in comparison. The bioavailability and absorption of B-OT is also more suitable for human therapy due to the more lipophilic basic structure of B-OT compared to OT. Compared to OT, B-OT is thus better, easier and safer to use as a drug.

Data set [2] can be described thus: Study in dogs on the conversion of B-OT to OT (toxicokinetics of OT in plasma, tolerability). It counts as in vivo, dogs (Beagle breed). The protocol: FIG. 1: Change in individual plasma concentrations of OT with time (over 24 hours) in male beagle dogs. The y-axis indicates—the plasma concentration in ng/ml. • On the x-axis the time is indicated in hours (h=hours) • (a) Change in individual plasma concentrations on day 1 after administration of a single dose of B-OT in an amount of 1 mg/kg/day. • The symbols mean: • —⋄—=dog no. 3001 • —□—=dog no. 3002 • (b) Change in individual plasma concentrations on day 1 after administration of a single dose of B-OT in an amount of 0.5 mg/kg/day. • The symbols mean: • —Δ—=dog no. 4001 • —∘—=dog no. 4002 • (c) Change in individual plasma concentrations at day 7 after seven days of administration of single doses of B-OT in an amount of 0.5 mg/kg/day. • The symbols mean: • —Δ—=dog no. 4001 • —∘—=dog no. […] • (d) Change in mean plasma concentrations on day 1 after administration of a single dose of B-OT at 1 mg/kg/day, and on day 1 and day 7 after daily administration of single doses of B-OT in an amount of 0.5 mg/kg/day. • The symbols mean: • —□—=group 3, 1.0 mg/kg/day, day 1 • —Δ—=Group 4, 0.5 mg/kg/day, day 1. • —∘—=group 4, 0.5 mg/kg/day, day 7.
Male and female dogs (Beagle breed) were administered B-OT (benfo-oxythiamine) orally once daily for periods of one to seven days in amounts of 1 mg/kg/day or 0.5 mg/kg/day.
The toxicokinetics of the active metabolite OT (oxythiamine) was determined in plasma samples obtained on the first day “Day 1” and on the seventh day “Day 7” after the start of administration. The measurement results obtained are shown graphically in FIGS. 1 (a) to (d).

Data set [3] can be described thus: Change in pulse beat (heart rate) in dogs after administration of B-OT. It counts as in vivo. The note with it: over 24 hours, B-OT 0.05, 0.15, 0.5 mg/kg/day. The protocol:
FIG. 2: Graph showing the change in plus beat with time in dogs after administration of different amounts (doses) of B-OT. On the y-axis, the pulse beat (heart rate) is given in beats per minute (bpm). On the x-axis, the time is given in hours. • The symbols mean: • —●=0 mg/kg/day—Benfooxythiamine=0 mg/kg/day—B-OT • —□—=0.05 mg/kg/day—Benfooxythiamine=0.05 mg/kg/day—B-OT • —Δ—=0.15 mg/kg/day—Benfooxythiamine=0.15 mg/kg/day—B-OT • −⋄—=0.5 mg/kg/day—Benfooxythiamine=0.5 mg/kg/day—B-OT
By slowing down (throttling) the metabolism, GSSV also causes a reduction in the energy released with it. The body attempts to compensate for the lower energy release by increasing the pulse rate in order to transport more oxygen into the body so that more energy can be released as a result. The increase in the patient's pulse beat is an indication and a suitable parameter that GSSV has inhibited energy release and to what extent. If there is a sharp increase in pulse rate, e.g., in a person a pulse rate above 90, countermeasures may be necessary to increase energy release again.

Data set [4] is described as follows: Comparison of B-OT amounts per kg body weight in dogs and humans versus rats and mice. Format: in vivo.
In the next data set the test system is SARS-CoV-2. Put plainly: Curative trials: B-OT in addition to standard therapy in patients with covid-19 pneumonia.
The nature of data set [5]: In vivo pharmacokinetics: oxythiamine in the brain after B-OT administration.
Setting [6] is: all patients with additional B-OT therapy.

Entries after “also recorded” stand apart in the source; their conditions may differ.

For `C/C(=C(/CCOP(=O)(O)O)SC(=O)c1ccccc1)N(C=O)Cc1cnc(C)[nH]c1=O` [B-OT, benfo-oxythiamine], in data set [1], the “B-OT (prodrug form) measurable in the blood” value was determined as 0% and the “share of total amount of B-OT administered measurable in the blood in the form of oxythiamine (OT)” value amounted to 44%. For the same molecule, in data set [2] (dog, in vivo), the “behavior and physical condition” value is “No relevant abnormalities”; the body weight result is “no significant variations in body weight”. The “systemic exposure to OT / B-OT” value in data set [2] (dog, in vivo, po) is “exposed to the active metabolite OT but not to the preform (prodrug) B-OT”. Besides, the tolerability of treatment result in data set [2] (dogs, oral B-OT 1 or 0.5 mg/kg/day, one to seven days) is listed as “well tolerated”. In addition, in data set [3], the “pulse beat (heart rate)” value is “significant increase in pulse beat”. In addition, the “reaction of dogs and humans to B-OT amounts per kg applied to rats and mice” value in data set [4] (rodent amounts per kilogram body weight used in dogs and humans) is on record as “in many cases led to death”. In addition, the “dose usable in humans and dogs compared to published amounts used in rats and mice” value in data set [4] (to avoid serious, sometimes fatal, courses) is listed as “approximately two hundredfold lower dose”. Moreover, in the data set with SARS-CoV-2 (after 7 days of B-OT therapy versus before), the “viral pneumonia infiltrates in lung computed tomography” value was “marked decrease in infiltrates; also recorded: marked decrease of infiltrates; also recorded: significant decrease in the previously pronounced infiltrates”. In the data set with SARS-CoV-2 (setting [6]), the “C-reactive Protein (CRP)” value was “significant reduction” and the “Interleukin-6 (IL-6)” value was “significant reduction”. The required inpatient stay entry in the data set with SARS-CoV-2 (compared with the overall collective of more than 700 patients) is recorded as “on average one week less”. Further, the “side effects attributable to B-OT” value in the data set with SARS-CoV-2 (four covid-19 pneumonia patients, 6 mg B-OT per day perorally for seven days) was “None of the patients showed side effects”. In the data set with SARS-CoV-2 (four covid-19 pneumonia patients, 6 mg B-OT per day perorally for seven days plus standard therapy), the “need for intensive care” value is reported as “none of the four patients required intensive care”. The “need for respiratory support therapy beyond nasal cannula or mask oxygen insufflation” value in the data set on SARS-CoV-2 (four patients with additional B-OT therapy, versus overall collective of more than 700 patients) is listed as “none of the four patients”. Also, the “lung computed tomography at follow-up” value with SARS-CoV-2 (patient 2, one month after the end of therapy) is reported as “stable findings”.

`Cc1ncc(C[n+]2csc(CCO)c2C)c(=O)[nH]1` [OT, oxythiamine]: the “oxythiamine in the brain after B-OT is administered” value in data set [5] is “present in significant amounts in the brain”. Besides, the “time of maximum OT plasma concentration (Tmax) after administration of B-OT” value in data set [2] (Beagle dogs, oral B-OT, all applied doses) is “between one and two hours”. The “systemic exposure to OT / B-OT” value in data set [2] (dogs treated orally with B-OT) is given as “achieved in all animals”. The “increase in plasma concentrations of oxythiamine (OT) with B-OT dose” value in data set [2] (dogs, stepwise increase of B-OT dose from 0.2 mg/kg to 1.0 mg/kg) is “approximately linearly proportional to the increase in dose”. Further, the “increase in plasma OT based on dose-normalized Cmax and partial AUC” value in data set [2] (male beagle dogs, oral B-OT single doses, over the range of applied doses) was “less than dose-proportional increase”.
